The values that follow come from patent US6939716B2, “Method for detecting conditions indicative of sepsis” (Washington University, priority 2001, dated 2005).

One assay deals with T1, eosinophil peroxidase (Sus scrofa, UniProt P80550).
T1 construct: purchased ExOxEmis (Little Rock, Ark.)
T1 sequence (P80550 143-704): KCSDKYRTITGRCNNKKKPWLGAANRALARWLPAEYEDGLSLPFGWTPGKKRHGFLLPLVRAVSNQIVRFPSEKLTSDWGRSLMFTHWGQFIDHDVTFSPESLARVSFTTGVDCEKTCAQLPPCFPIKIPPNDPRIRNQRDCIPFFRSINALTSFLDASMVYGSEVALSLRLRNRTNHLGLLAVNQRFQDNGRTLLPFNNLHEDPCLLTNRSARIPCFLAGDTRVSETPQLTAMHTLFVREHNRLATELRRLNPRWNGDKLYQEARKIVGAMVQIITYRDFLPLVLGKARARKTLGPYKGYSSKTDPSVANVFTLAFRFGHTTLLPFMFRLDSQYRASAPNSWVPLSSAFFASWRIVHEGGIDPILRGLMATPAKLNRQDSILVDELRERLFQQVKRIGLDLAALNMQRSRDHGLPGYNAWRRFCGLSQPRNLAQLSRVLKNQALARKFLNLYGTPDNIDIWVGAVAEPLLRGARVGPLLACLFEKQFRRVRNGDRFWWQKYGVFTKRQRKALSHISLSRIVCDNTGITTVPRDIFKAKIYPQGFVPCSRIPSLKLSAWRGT
As to the kind of experiment: Generation of N-acetyl-L-3-bromotyrosine by the eosinophil peroxidase-H2O2-Cl^−-Br^− system (reverse-phase HPLC). The format is biochemical, Porcine. As for the experimental part: General procedures. Myeloperoxidase was purified from HL60 cells (ref. 19). Enzyme was apparently pure as assessed by its absorption spectrum (A430/A280 ratio>0.8), SDS-PAGE, and peroxidase activity gel electrophoresis (ref. 20). Porcine eosinophil peroxidase (A415/A280>0.9) was from ExOxEmis (Little Rock, Ark.). Chloride-free NaOCl and HOBr were prepared by conventional procedures as described previously (refs. 21,22). Peritoneal white blood cells were elicited with intraperitoneal (i.p.) injection of 4% thioglycollate and harvested 24 h after injection (ref. 23). SDS-PAGE was performed using 10% Bis-Tris NuPAGE gels (Invitrogen; Carlsbad, Calif.). The separated proteins were transferred onto a nitrocellulose membrane, which was blocked overnight at 4° C. with 5% milk and 0.05% Tween-20 in phosphate-buffered saline (PBS; 10 mM phosphate, 138 mM NaCl, 2.7 mM KCl, pH 7.4). […]
Reverse-phase HPLC analyses of halogenated amino acids. Analyses were performed using a flow rate of 1 mL/min and an Ultrasphere ODS reverse-phase column (4.6 mm×25 cm; 5 μm; Beckman Instruments; Berkeley, Calif.) coupled to a Waters 484 Tunable Absorbance Detector with monitoring at 275 nm. […] Products were quantified using integrated peak areas by comparison to standard curves of authentic N-Ac-chlorotyrosine and N-Ac-bromotyrosine.

For the next assay, the target named is T2, myeloperoxidase (Homo sapiens, UniProt P05164).
T2 construct: endogenous in cells; host or cells: HL60 cells (endogenous enzyme, purified in house)
T2 sequence (P05164 49-745): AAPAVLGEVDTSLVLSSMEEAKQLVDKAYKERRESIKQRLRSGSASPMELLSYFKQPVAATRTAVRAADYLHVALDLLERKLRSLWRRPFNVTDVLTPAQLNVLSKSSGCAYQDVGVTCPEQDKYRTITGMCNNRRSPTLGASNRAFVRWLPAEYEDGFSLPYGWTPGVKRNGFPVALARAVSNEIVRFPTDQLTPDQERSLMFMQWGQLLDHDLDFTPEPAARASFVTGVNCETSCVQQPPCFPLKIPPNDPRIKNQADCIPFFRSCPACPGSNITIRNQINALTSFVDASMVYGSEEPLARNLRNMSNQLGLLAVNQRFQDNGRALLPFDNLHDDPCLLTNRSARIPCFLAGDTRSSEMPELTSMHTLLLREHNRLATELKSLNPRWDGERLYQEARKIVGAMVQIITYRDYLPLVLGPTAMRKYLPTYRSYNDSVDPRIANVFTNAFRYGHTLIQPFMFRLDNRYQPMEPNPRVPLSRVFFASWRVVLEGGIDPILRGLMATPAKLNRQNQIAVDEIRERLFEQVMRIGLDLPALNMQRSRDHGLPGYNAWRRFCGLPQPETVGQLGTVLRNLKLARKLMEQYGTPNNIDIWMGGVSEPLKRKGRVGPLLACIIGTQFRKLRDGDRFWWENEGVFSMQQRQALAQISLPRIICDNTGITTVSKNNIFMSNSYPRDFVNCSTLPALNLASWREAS
As to the kind of experiment: Generation of N-acetyl-L-3-bromotyrosine by the myeloperoxidase-H2O2-Cl^−-Br^− system (reverse-phase HPLC). The format is biochemical. The note with it: for effect on bromination of N-acetyl-L-tyrosine by myeloperoxidase: acidic (pH 5.9) and neutral conditions; for effect on bromination by the myeloperoxidase-H2O2-Cl^−-Br^− system: mildly acidic conditions (pH 5.9). As for the experimental part: General procedures. Myeloperoxidase was purified from HL60 cells (ref. 19). Enzyme was apparently pure as assessed by its absorption spectrum (A430/A280 ratio>0.8), SDS-PAGE, and peroxidase activity gel electrophoresis (ref. 20). Porcine eosinophil peroxidase (A415/A280>0.9) was from ExOxEmis (Little Rock, Ark.). Chloride-free NaOCl and HOBr were prepared by conventional procedures as described previously (refs. 21,22). Peritoneal white blood cells were elicited with intraperitoneal (i.p.) injection of 4% thioglycollate and harvested 24 h after injection (ref. 23). SDS-PAGE was performed using 10% Bis-Tris NuPAGE gels (Invitrogen; Carlsbad, Calif.). The separated proteins were transferred onto a nitrocellulose membrane, which was blocked overnight at 4° C. with 5% milk and 0.05% Tween-20 in phosphate-buffered saline (PBS; 10 mM phosphate, 138 mM NaCl, 2.7 mM KCl, pH 7.4). The blot was then incubated (1 h) with rabbit anti-mouse myeloperoxidase antibody (1:1,000) followed by goat anti-rabbit immunoglobulin antibody (1:10,000; Santa Cruz Biotechnology; Santa Cruz, Calif.) conjugated with horseradish peroxidase. West Pico chemiluminescent substrate (Pierce; Rockford, Ill.) was added, and the membrane was exposed to autoradiography film and developed.
Reaction conditions. Reactions were carried out for 60 min at 37° C. in buffer A (100 mM NaCl, 50 mM sodium phosphate, 100 μM diethylenetriaminepentaacetic acid (DTPA)) supplemented with 1 mM N-acetyl-L-tyrosine and either 50 μM hypohalous acid or 3 nM peroxidase and 50 μM H2O2. Buffer A was passed over a Chelex resin column prior to use to remove redox active transition metal ions. Reactions were initiated by the addition of oxidant and terminated with 0.1 mM methionine.
(§1) Reverse-phase HPLC analyses of halogenated amino acids. Analyses were performed using a flow rate of 1 mL/min and an Ultrasphere ODS reverse-phase column (4.6 mm×25 cm; 5 μm; Beckman Instruments; Berkeley, Calif.) coupled to a Waters 484 Tunable Absorbance Detector with monitoring at 275 nm. Solvent A was 0.1% trifluoroacetic acid (TFA, pH 2.5), and solvent B was 0.1% TFA in methanol (pH 2.5). The gradient profile was: isocratic elution at 66:34 (v/v) A:B over 2.1 min; linear increase of B from 34% to 40% over 30 min; isocratic elution at 60:40 A:B for 3 min; increase of B from 40% to 100% over 2 min; and isocratic elution at 100% B for 3 min. Products were quantified using integrated peak areas by comparison to standard curves of authentic N-Ac-chlorotyrosine and N-Ac-bromotyrosine.

Assay [1] is described as follows: Generation of N-acetyl-L-3-bromotyrosine by the HOCl-Cl^−-Br^− system (reverse-phase HPLC). On the procedure:
as §1, with “Reaction conditions. Reactions were carried out for 60 min at 37° C. in buffer A (100 mM NaCl, 50 mM sodium phosphate, 100 μM diethylenetriaminepentaacetic acid (DTPA)) supplemented with 1 mM N-acetyl-L-tyrosine and either 50 μM hypohalous acid or 3 nM peroxidase and 50 μM H2O2. Buffer A was passed over a Chelex resin column prior to use to remove redox active transition metal ions. Reactions were initiated by the addition of oxidant and terminated with 0.1 mM methionine. Reverse-phase” for “Reverse-phase”

In another assay the test system is Klebsiella pneumoniae. Kind of assay: Bacterial killing by myeloperoxidase. The format is cell-based. As for the experimental part:
Bacterial killing. The bactericidal activity of myeloperoxidase was quantified by conventional procedures as described previously (ref. 27). Briefly, Klebsiella pneumoniae were cultured in Luria-Bertani broth to mid-log growth phase, washed with PBS, and used at 10^9 bacteria/mL. Bacteria were incubated with 5 nM enzyme, 5 nM H2O2, and 100 mM NaCl in PBS (pH 5.5) for 15 min at 37° C. Serial dilutions were immediately spread on agar plates and the colony forming units determined after overnight incubation at 37° C.

[2] abbreviates: mildly acidic conditions (pH 5.9).
[3] abbreviates: neutral conditions (pH 7), taurine 200 μM.

Entries after “also recorded” stand apart in the source; their conditions may differ.

In the case of `NCCS(=O)(=O)O` [taurine], the “effect on production of N-acetyl-L-3-bromotyrosine by the eosinophil peroxidase-H2O2-Cl^−-Br^− system” value at eosinophil peroxidase (setting [2]) is listed as “failed to affect”. Moreover, the “effect on N-acetyl-L-3-bromotyrosine formation by the eosinophil peroxidase-H2O2-Cl^−-Br^− system” value at eosinophil peroxidase (setting [3]) is recorded as “little affect”. Further, the “effect on bromination of N-acetyl-L-tyrosine by myeloperoxidase” value on myeloperoxidase is given as “inhibited”. The “effect on bromination by the myeloperoxidase-H2O2-Cl^−-Br^− system” value at myeloperoxidase is recorded as “almost completely inhibited”; at myeloperoxidase (listed as Taurine), “inhibited”. The “effect on N-acetyl-L-3-bromotyrosine formation by the myeloperoxidase-H2O2-Cl^−-Br^− system” value on myeloperoxidase (setting [3]) was “only partially inhibited; also recorded: only partly inhibited”. The figures for the “effect on formation of N-acetyl-L-3-bromotyrosine by the HOCl-Cl^−-Br^− system” value in assay [1] (setting [2]) and in assay [1] (setting [3]) were “inhibited” and “completely inhibited”, respectively.
As for `Br` [Br^−, bromide], the “bacteria killing (dead)” value with Klebsiella pneumoniae (1 μM Br added to the complete myeloperoxidase-H2O2-Cl^− system) came to 72%. Besides, the “effect on bacteria killing” value with Klebsiella pneumoniae (10 μM Br^− added to the complete myeloperoxidase-H2O2-Cl^− system) is recorded as “completely inhibitory”.

B1: catalase: a peroxide scavenger (protein, UniProt P04040 2-527, looked up)
Catalase: ADSRDPASDQMQHWKEQRAAQKADVLTTGAGNPVGDKLNVITVGPRGPLLVQDVVFTDEMAHFDRERIPERVVHAKGAGAFGYFEVTHDITKYSKAKVFEHIGKKTPIAVRFSTVAGESGSADTVRDPRGFAVKFYTEDGNWDLVGNNTPIFFIRDPILFPSFIHSQKRNPQTHLKDPDMVWDFWSLRPESLHQVSFLFSDRGIPDGHRHMNGYGSHTFKLVNANGEAVYCKFHYKTDQGIKNLSVEDAARLSQEDPDYGIRDLFNAIATGKYPSWTFYIQVMTFNQAETFPFNPFDLTKVWPHKDYPLIPVGKLVLNRNPVNYFAEVEQIAFDPSNMPPGIEASPDKMLQGRLFAYPDTHRHRLGPNYLHIPVNCPYRARVANYQRDGPMCMQDNQGGAPNYYPNSFGAPEQQPSALEHSIQYSGEVRRFNTANDDNVTQVRAFYVNVLNEEQRKRLCENIAGHLKDAQIFIQKKAVKNFTEVHPDYGSHIQALLDKYNAEKPKNAIHTFVQSGSHLAAREKANL
As for B1, the “effect on bromination of N-acetyl-L-tyrosine by myeloperoxidase” value in the assay with myeloperoxidase is reported as “inhibited”.
